Data published in patent US11479805B2, “Combinatorial single molecule analysis of chromatin” (The General Hospital Corporation, priority 2015, dated 2022).

Tests used:
[1] = tested on: H3K9ac, H3K27ac, H3K4me3 and H3K27me3 on nucleosomes from ESCs; test: Single-molecule decoding of nucleosomes from ESCs treated with HDAC inhibitor or p300 inhibitor; format: cell-based, Mouse; details: for change in H3K4me3 or H3K27me3 on nucleosomes: over the course of treatment (sodium butyrate 6 hours, C646 24 hours); for change in acetylation marks (H3K9ac, H3K27ac) on nucleosomes: sodium butyrate 1 mM 6 hours, C646 35 μM 24 hours, vs DMSO; for change in acetylation marks (H3K9ac, H3K27ac) on nucleosomes / preference of acetylation change for H3K4me3-marked nucleosomes (combination H3K27ac and H3K4me3): FIG. 3D; for preference of acetylation change for H3K4me3-marked nucleosomes (combination H3K27ac and H3K4me3): sodium butyrate 6 hours, C646 24 hours
Experimental: Applicants treated ESCs with a pan-HDAC inhibitor (sodium butyrate; 6 hours) or with a p300 HAT inhibitor (C646; 24 hours) and probed extracted nucleosomes for H3K9ac, H3K27ac, H3K4me3 and H3K27me3.
(§1) For HDAC inhibition, 6 million ES cells were plated on a 150 cm plate. 0.5M stock solution of Sodium butyrate (Sigma, 303410) was prepared fresh for each experiment, and diluted in cell media to a final concentration of 1 mM. Following 6 hours of treatment (unless otherwise noted in text), cells were collected and washed with PBS. For p300 inhibition, 4 million ES cells were plated on a 150 cm plate. 25 mM stock solution of C646 (Sigma, SML0002) was prepared and diluted in cell media to a final concentration of 35 μM. Cells were treated for 24 hours, then collected and washed with PBS. For EZH2 inhibition, 2.5 million Karpas422 B-cell non-Hodgkin's lymphoma cells were suspended in 10 ml media. A 10 mM stock solution of the EZH2 inhibitor GSK126 (32) was prepared and diluted 1:1000 in cell media. Cells were harvested 3 days following treatment.
10 million cells were collected and washed twice with PBS, then resuspended in 500 μl of Lysis buffer (50 mM Tris-HCl pH 7.5, 150 mM NaCl, 1% Triton® X-100, 0.1% sodium deoxycholate, 5 mM CaCl2), supplemented with protease inhibitors (ThermoFisher Scientific, 78425), phosphatase inhibitors (ThermoFisher Scientific, 78420) and HDAC inhibitors (Sodium butyrate, Sigma 303410). Micrococcal Nuclease (ThermoFisher Scientific, 88216) was added to lysis buffer at a concentration of 1 unit per milliliter. The suspension is incubated at 4° C. for 1 hour to lyse the cells, after which MNase is activated by incubating at 37° C. for 20 min and inactivated by addition of EGTA at a final concentration of 20 mM. Next, Applicants centrifuged the lysate for 10 min at max speed and supernatant was transferred to a new tube. 10% of the lysate was used to extract DNA (QIAGEN PCR purification kit, 28104) and run on 2% agarose gel to verify MNase digestion. 100 μl of the lysate were used for ligation of fluorescent, biotinylated adaptors: sample was diluted 1:1 in ligation reaction mixture containing End-It™ DNA End-Repair Kit (Epicentre, ER0720) and Fast-Link™ DNA Ligation Kit (Epicentre, LK0750H). Ligation buffer (100 μl) contained 20 μl ligase buffer, 5 μl of 10 mM dNTPs, 16 μl of 10 Mm ATP, 8 μl End-It, 8 μl fast-link ligase, 1 μl protease inhibitors, 1 μl phosphatase inhibitors, 2 μl of 50 mM sodium butyrate solution, 8 μl annealed adaptors (see sequences below) and H2O. Following at least two hours of ligation at room temperature, 1.5 ml of PBS (supplemented with inhibitors) was added to the sample. Next, the sample was concentrated on an Amicon ultra-4 centrifugal filter unit with ultracel-100 membrane (Millipore, UFC810024) for 15 minutes, and the Pac1 enzymatic reaction (NEB, R0547S) was performed in order to digest adaptor concatemers (adaptors were designed to form Pac1 restriction site in cases of self-ligation). Following Pac1 digestion, nucleosomes were separated on 10-30% glycerol gradients for 18 hours at 35,000 rpm. Fractions were collected and analyzed on 6% DNA retardation gels (ThermoFisher Scientific, EC6365BOX). Gels were imaged with Typhoon trio+imager (Amersham Biosciences), and fractions containing mono-nucleosomes were combined and concentrated on an Amicon Ultra-0.5 Centrifugal Filter Unit with Ultracel-100 membrane (Millipore, UFC510096). For preparation of biotinylated histones (FIG. 2E), histones were purified from ESCs using acid extraction and TCA precipitation as described previously (89). Histones biotinylation was carried out with EZ-Link Sulfo-NHS-Biotinylation Kit (Thermo Scientific, 21425) according to manufacturer's protocol.

[2] = tested on: acetylation marks in ESCs; test: Western blot of acetylation marks in ESCs after HDAC or p300 inhibition; format: cell-based, Mouse; details: FIG. 12B, corresponds to FIG. 3D
Experimental: FIG. 12A-12B. […] (A) Scatter plot of the observed overlap of the indicated modification pair versus the overlap expected by chance. Corresponds to the data in FIG. 3A, 3B. […] Corresponds to the data in FIG. 3D.
as §1

[3] = tested on: H3K27me3 on bivalent nucleosomes of Karpas422 lymphoma cells; test: Single-molecule decoding of H3K27me3 and H3K4me3 on nucleosomes from EZH2 gain-of-function lymphoma cells treated with EZH2 inhibitor; format: cell-based, human; details: treatment for 3 days, FIG. 2G
Excerpt: Genomic loci marked by bivalent chromatin in ESCs are frequently deregulated in cancer cells (26). Moreover, the Polycomb and trithorax complexes that catalyze H3K27me3 and H3K4me3 are often mutated in cancer (27, 28). Applicants therefore leveraged the single-molecule platform to investigate these modifications in cancer cells (FIG. 2B, 2C, 10B). First, Applicants examined three cell lines that lack known Polycomb or trithorax mutations: T-cell acute leukemia (DND-41), embryonic kidney (HEK293), and glioblastoma (GSC8). […] Applicants next examined a leukemia line (SKM-1) with a loss-of-function (LOF) mutation of the PRC2 subunit EZH2 (29, 30) (FIG. 2C). Applicants observed a drastic reduction of H3K27me3-marked nucleosomes, consistent with inactivation of this H3K27 methyltransferase. Applicants also examined a lymphoma cell line (Karpas422) with a gain-of-function (GOF) EZH2 mutation that increases its catalytic activity (30). Here Applicants detected H3K27me3 on a very high proportion of nucleosomes (15%). […] Even when controlling for the large fraction of H3K27me3-marked nucleosomes in these cells, the proportion of bivalent nucleosomes is ˜4-fold greater than expected from random overlap. […] This may reflect increased nucleosome turnover and/or preferential demethylation in such regions. […]

| Structure (SMILES) | change in H3K4me3 or H3K27me3 on nucleosomes [1] | change in acetylation marks (H3K9ac, H3K27ac) on nucleosomes [1] | preference of acetylation change for H3K4me3-marked nucleosomes (combination H3K27ac and H3K4me3) [1] | acetylation marks by Western blot [2] | loss of H3K27me3 from bivalent nucleosomes [3] |
| --- | --- | --- | --- | --- | --- |
| CC1=NN(c2ccc(C(=O)O)cc2)C(=O)/C1=C\c1ccc(-c2cc(C)c(C)cc2[N+](=O)[O-])o1 [C646] | Neither drug altered | opposite affect | H3K4me3-marked nucleosomes were more likely to retain their initial state | decrease in acetylation |  |
| CC[C@H](C)n1cc(C)c2c(C(=O)NCc3c(C)cc(C)[nH]c3=O)cc(-c3ccc(N4CCNCC4)nc3)cc21 [GSK126] |  |  |  |  | preferential loss of H3K27me3 from bivalent nucleosomes |
| CCCC(=O)[O-].[Na+] [sodium butyrate, Sodium butyrate] | Neither drug altered | significantly increased | increased acetylation preferentially affected H3K4me3-marked nucleosomes | increase in acetylation marks |  |
